Holding throughout (assay): inhibition of tumour cell growth, NCI panel, 48 h
Assay [1] has as its system UACC-257 melanoma.
For assay [2], the system named is OVCAR-5 ovarian.
In assay [3] the test system is SNB-75 CNS.
In assay [4] the test system is K-562 leukemia.
Assay [5] deals with KM12 colon.
The test system of assay [6] is SK-OV-3 ovarian.
The subject of assay [7] is OVCAR-4 ovarian.
Assay [8] concerns SF-268 CNS.
Assay [9] has as its system ACHN renal.
In assay [10] the test system is HL-60(TB) leukemia.

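Where inhibition never reached the appropriate level, the endpoint shown equals the highest concentration tested. Otherwise, values were interpolated linearly from a five-concentration, 48-hour dose response in 96-well plates. At the GI50, growth is halved. TGI denotes the concentration required for complete inhibition of growth.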

For `COc1cc(C2CC(c3cccc(Nc4ccncc4)c3)=NN2c2ccc(Cl)cc2)cc(OC)c1OC` (stereo not drawn), the GI50 in assay [1] was 1.96 µM; in assay [2], 1.66 µM; in [3] it was 1.28 µM; in assay [4], 1.81 µM; in [5], 1.67 µM; in assay [6], 1.77 µM. The figures for the GI50 in assay [7], in assay [8] and in [9] were 1.62 µM, 1.58 µM and 1.54 µM, respectively. Also, the TGI came out at 3.84 µM in assay [1]; 3.13 µM in assay [2]; 2.85 µM in assay [3]; 4.71 µM in [4]; 3.31 µM in [5]; 3.43 µM in [6]. In addition, the TGI is 3.08 µM in assay [7], 3.06 µM in assay [8] and 2.88 µM in [9].
As for `COc1ccc(/C(Cl)=C(\C=O)c2ccc(OC)cc2)cc1`, the TGI in assay [1] was above 100 µM; in [2], above 100 µM; in assay [3], above 100 µM; in assay [4], above 100 µM; in [10] it was 80.9 µM; in assay [6], above 100 µM. Also, the TGI in [7], in [8] and in assay [9] was above 100 µM in each case.
For the compound `Nc1ccccc1N=Cc1cc2cc([N+](=O)[O-])ccc2s1`, the TGI in assay [1] is 51.2 µM; in assay [2], above 100 µM; in assay [3], 28.8 µM; in assay [4], 35.1 µM; in assay [10], 32 µM; in assay [5], above 100 µM. The TGI in assay [6] turned out to be 29.7 µM; in assay [8] it was 35.6 µM; in assay [9] it was 40.3 µM.
As to `COc1cc(/C=C/C(=O)Oc2ccc(NC(C)=O)cc2)ccc1C(=O)O/C=C/c1ccccc1`, the TGI in [1] was above 100 µM; in assay [2], above 100 µM; in assay [3] it was above 100 µM; in assay [4], above 31.6 µM; in assay [10], above 100 µM; in assay [5], above 100 µM. The TGI in assay [6], in [7] and in assay [8] was above 100 µM in each case.
For the compound `COc1ccc(-c2nc3ncccn3c2-c2ccc(SC)cc2)cc1`, the TGI is above 100 µM in [1]; 7.06 µM in [2]; above 100 µM in [3]; above 100 µM in assay [4]; 6.61 µM in [10]; 13.3 µM in assay [5]. The TGI in assay [6] is 2.85 µM; in [7], above 100 µM; in assay [8] it was 3.15 µM; in assay [9] it was 41 µM.
Regarding `CSc1ccsc1-c1sc(-c2cc(SC)c(-c3sc(-c4cc(SC)c(-c5sccc5SC)s4)cc3SC)s2)cc1SC`, the TGI in [1] was above 100 µM; in assay [2], above 100 µM; in [4] it was above 100 µM; in assay [10], 8.9 µM; in [5], above 100 µM; in [6] it was above 100 µM. Besides, the TGI in assay [7], in [8] and in assay [9] was above 100 µM each time.
Consider `CCc1nc(N)nc(N)c1-c1ccc([N+](C)(C)C)cc1`, for which the TGI in assay [1], in assay [2], in assay [3], in assay [4], in assay [10] and in [5] was above 100 µM throughout. Moreover, the TGI in assay [6], in assay [7], in assay [8] and in assay [9] was above 100 µM throughout.
`COc1ccc2c(C(=O)c3cn(CCN4CCOCC4)c4ccccc34)cccc2c1`: the TGI in assay [1] is above 100 µM; in [2], above 100 µM; in assay [3] it was above 100 µM; in assay [4] it was above 100 µM; in [10], 54.3 µM; in assay [5], above 100 µM. For the same compound, the TGI in assay [6], in assay [7], in assay [8] and in assay [9] was above 100 µM in each case.
For `CCOC(=O)c1c2c(n(Cc3ccccc3)c1C)C(=O)C(=O)c1ccccc1-2`, the TGI in assay [1] is 0.285 µM; in [3] it was 2.69 µM; in assay [4], above 100 µM; in assay [10], 0.0983 µM; in [5], 3.02 µM; in assay [6], 5.76 µM. Moreover, the results for the TGI in assay [8] and in assay [9] were 1.27 µM and 1.92 µM, respectively.
Regarding `CCSC1=N/C(=C\c2ccc(N(C)C)cc2)C(Cl)=N1`, the TGI in assay [1], in [2], in assay [3], in [10], in [5] and in assay [6] was above 100 µM each time. Further, the TGI in assay [7], in [8] and in assay [9] was above 100 µM in each case.
On to `FC(F)(F)c1ccc2c(c1)nc(-c1ccc(Cl)cc1)n2CC1CCCN2CCCCC12` (stereo not drawn), for which the TGI in assay [1] turned out to be 28.7 µM; in assay [2], 21.4 µM; in assay [3], 21.7 µM; in assay [10], 29.2 µM; in [5], 41.8 µM; in [6], 21.3 µM. The values for the TGI in assay [7], in assay [8] and in assay [9] were 35.6 µM, 27.5 µM and 27.9 µM, respectively.
For the compound `CCC(=O)O[C@H]1CC[C@H]2[C@@H]3CCC4=C/C(=N/OC(=O)c5cccc6cc7ccccc7nc56)CC[C@]4(C)[C@H]3CC[C@]12C`, the TGI in [1], in assay [2], in assay [3], in assay [4], in [10] and in [5] was above 100 µM each time. Besides, the TGI in assay [6], in assay [7], in assay [8] and in [9] was above 100 µM in each case.
As for `N=C1C(=N)c2ccccc2-c2ccccc21.N=C1C(=N)c2ccccc2-c2ccccc21.N=C1C(=N)c2ccccc2-c2ccccc21.[Cl-].[Ru+2]`, the TGI in [1] is 3.53 µM; in assay [2], 18.6 µM; in assay [3], 4.25 µM; in assay [4], 4.68 µM; in assay [10] it was 3.76 µM; in assay [5], above 68 µM. Also, the TGI in assay [6] stood at 6.91 µM; in assay [7] it was 2.85 µM; in assay [8], 3.28 µM; in assay [9], 3.29 µM.
For the compound `COC(C)(C)OCCN1CCN(CCN2C3=C(C=C(C(C)=O)C3)Sc3ccccc32)CC1`, the TGI was 36.9 µM in assay [1]; 59.1 µM in assay [2]; above 100 µM in assay [3]; 32.2 µM in assay [4]; 35.8 µM in assay [10]; 32.6 µM in assay [5]. The TGI in [6] was 79.8 µM; in assay [7] it was above 100 µM; in assay [8], 43.2 µM; in assay [9] it was 35.5 µM.
`Cc1cc2c(cc1C(=O)c1ccc(N)cc1)OCO2`: the TGI in [1] was above 100 µM; in assay [2], above 100 µM; in [4], above 100 µM; in assay [10], above 100 µM; in assay [5] it was above 100 µM; in [6], 85.6 µM. The TGI in assay [8] and in [9] was above 100 µM each time.
Regarding `CC(C)(C)[Si](C)(C)Oc1ccc(C2CNC(=O)C23CCC(=O)N3Cc2ccccc2)cc1` (stereo not drawn), the TGI was 25.7 µM in assay [1]; 36.9 µM in [2]; 32.1 µM in [3]; above 100 µM in assay [4]; 49.2 µM in assay [10]; above 100 µM in assay [5]. For the same compound, the TGI in [6] was determined as 29 µM; in [7] it was 29.1 µM; in assay [8] it was 26 µM; in assay [9], 30.9 µM.
For `Oc1cn(-c2ccc(Cl)cc2)nc1-c1n[nH]c(=S)n1-c1ccccc1`, the TGI in [1] is above 100 µM; in assay [2], 46.2 µM; in [3], above 100 µM; in assay [4], above 100 µM; in [10] it was above 100 µM; in assay [5] it was 31.8 µM. Moreover, the TGI is 51.3 µM in assay [6], above 100 µM in [7], 64.2 µM in [8] and above 100 µM in assay [9].
As to `C[C@H]1C(=O)O[C@@H]2CCN3CC=C(COC(=O)[C@](C)(O)[C@@]1(C)O)[C@H]23`, the TGI in [1], in assay [2], in [3], in [4], in assay [10] and in [5] was above 100 µM each time. The TGI in [6], in assay [7], in [8] and in assay [9] was above 100 µM each time.
Consider `Cc1c2cccc-2c(OCCO)cc2c3ccccc3n(C)c12`, for which the TGI in assay [1] came out at 17.6 µM; in [2] it was 16.1 µM; in [3], 35.5 µM; in [4], 21.4 µM; in assay [10], 7.19 µM; in assay [5], 12.9 µM. For the same compound, the TGI was determined as 7.34 µM in assay [6], 15.1 µM in assay [7], 25.6 µM in assay [8] and 24 µM in assay [9].
As for `CN(C)C(=O)/C=C/c1c[nH]c(=O)[nH]c1=O`, the TGI is above 500 µM in assay [1]; above 500 µM in [2]; above 500 µM in assay [3]; above 500 µM in [4]; above 316 µM in assay [10]; above 500 µM in [5]. Besides, the TGI is above 280 µM in assay [6], above 500 µM in [7] and above 500 µM in [8].
Consider `CC(=O)NNc1nc(-c2ccc([N+](=O)[O-])cc2)c(C#N)c(=O)n1C`, for which the TGI in [1] is above 100 µM; in assay [2], 77 µM; in [3], 54.9 µM; in assay [4], 89.5 µM; in assay [10], 82.6 µM; in [5] it was above 100 µM. The TGI in [6] was above 100 µM; in assay [7], 52.7 µM; in assay [8], above 100 µM; in [9] it was above 100 µM.
For `NCCCn1c2c(c3ccc([N+](=O)[O-])cc3c1=O)C(=O)c1ccccc1-2`, the GI50 in assay [1] is 0.495 µM; in [2], 0.414 µM; in assay [3], 0.835 µM; in assay [4] it was 0.0335 µM; in assay [10], 0.031 µM; in [5] it was 0.0892 µM. For the same compound, the GI50 was 0.631 µM in assay [6], 0.116 µM in assay [7], 0.24 µM in [8] and 0.0198 µM in assay [9]. The TGI is above 16.6 µM in [1]; 1.3 µM in assay [2]; 2.67 µM in assay [3]; above 19.3 µM in assay [10]; 1.23 µM in [5]; 2.28 µM in assay [6]. Also, the values for the TGI in [7], in assay [8] and in [9] were 0.47 µM, above 12.2 µM and 0.0885 µM, respectively.
As for `COc1ccc2c(c1)CCCN2CCCCCCCCCCN(CCC(C)C)CCC(C)C`, the TGI came to 32.5 µM in [1]; 28.4 µM in [2]; 40 µM in [4]; 9.61 µM in [10]; 17.4 µM in [5]; 40.9 µM in assay [6]. In addition, the values for the TGI in assay [7], in assay [8] and in assay [9] were 19.4 µM, 25.6 µM and 22.8 µM, respectively.
Regarding `O=C(Nc1ccc([N+](=O)[O-])cc1[N+](=O)[O-])C(=O)C(C(=O)c1ccc2ccccc2c1)C1OC(=O)c2ccccc21` (stereo not drawn), the TGI came out at 58 µM in [1]; 58.2 µM in assay [2]; 50.7 µM in [3]; 38.8 µM in assay [4]; 35 µM in assay [10]; 40.3 µM in assay [5]. For the same compound, the TGI in [6] is 42.1 µM; in [7], 60.3 µM; in assay [8], 43.1 µM; in assay [9], 73.2 µM.
As to `Nc1n[nH]c(=O)c2c1c(I)cn2C1OC(CO)C(O)C1O` (stereo not drawn), the TGI is 13.4 µM in [1]; 2.81 µM in assay [3]; above 100 µM in assay [4]; 0.348 µM in assay [10]; above 100 µM in assay [5]; above 100 µM in [6]. Moreover, the TGI in [7] was 14.4 µM; in assay [8], 25.7 µM; in assay [9], above 100 µM.
For `CN(C)CCNC(=O)c1cccc2ccc(-c3ccc(F)cc3)nc12`, the TGI in [1] was found to be 17.9 µM; in assay [2], 25.6 µM; in assay [3] it was 19.6 µM; in assay [4] it was 12 µM; in assay [10] it was 7.49 µM; in [5], 33.4 µM. For the same compound, the figures for the TGI in [6], in assay [7] and in assay [8] were 24.8 µM, 18.3 µM and 22.2 µM, respectively.

These data come from PubChem BioAssay (NCI).
